Data as given in BindingDB's records for PubMed 37487305 (Zhengzhou University).

Molecular target: Histone deacetylase 1 (Homo sapiens, UniProt Q13547)
Assay: Inhibition of HDAC1 (unknown origin) by fluorescence based microplate reader assay

Chain of Histone deacetylase 1 (Q13547 whole entry): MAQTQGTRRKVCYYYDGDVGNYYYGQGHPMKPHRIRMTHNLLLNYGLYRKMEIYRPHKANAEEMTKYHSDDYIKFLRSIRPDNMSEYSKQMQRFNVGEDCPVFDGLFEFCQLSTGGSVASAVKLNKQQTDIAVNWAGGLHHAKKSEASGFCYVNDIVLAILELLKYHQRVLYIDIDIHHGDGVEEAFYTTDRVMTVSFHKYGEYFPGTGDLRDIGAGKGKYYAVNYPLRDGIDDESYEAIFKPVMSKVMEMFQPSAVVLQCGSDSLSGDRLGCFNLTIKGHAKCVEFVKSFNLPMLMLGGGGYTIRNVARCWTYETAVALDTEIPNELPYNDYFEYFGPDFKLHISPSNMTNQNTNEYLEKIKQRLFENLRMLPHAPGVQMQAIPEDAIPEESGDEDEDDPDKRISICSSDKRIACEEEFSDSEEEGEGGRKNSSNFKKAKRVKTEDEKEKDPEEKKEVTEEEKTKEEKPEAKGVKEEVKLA

CN1c2ccccc2C(=O)N2[C@H](C(=O)Nc3ccc(C(=O)Nc4ccccc4N)cc3)Cc3c([nH]c4ccccc34)[C@@H]12
IC50: 160 nM
